In ChEMBL document CHEMBL4507276 (2021):

What was measured:
[1] = biological target: Cannabinoid receptor 1 (Homo sapiens) (UniProt P21554); experiment: CB1 Eurofins-Panlabs selectivity data (BI); conditions: Compound concentration 10.0 uM
[2] = biological target: Adenosine receptor A1 (Homo sapiens) (UniProt P30542); experiment: A1/HU Eurofins-Panlabs selectivity data (BI); conditions: Compound concentration 10.0 uM
[3] = biological target: Mitogen-activated protein kinase 1 (Homo sapiens) (UniProt P28482); experiment: ERK2(P42MAPK)_CE Cerep selectivity data (BI); conditions: Compound concentration 20.0 uM
[4] = biological target: Myosin light chain kinase 2, skeletal/cardiac muscle (Homo sapiens) (UniProt Q9H1R3); experiment: MYLK2 Invitrogen selectivity data (BI); conditions: Compound concentration 3.0 uM
Sequence of Myosin light chain kinase 2, skeletal/cardiac muscle (Homo sapiens) (Q9H1R3 whole entry): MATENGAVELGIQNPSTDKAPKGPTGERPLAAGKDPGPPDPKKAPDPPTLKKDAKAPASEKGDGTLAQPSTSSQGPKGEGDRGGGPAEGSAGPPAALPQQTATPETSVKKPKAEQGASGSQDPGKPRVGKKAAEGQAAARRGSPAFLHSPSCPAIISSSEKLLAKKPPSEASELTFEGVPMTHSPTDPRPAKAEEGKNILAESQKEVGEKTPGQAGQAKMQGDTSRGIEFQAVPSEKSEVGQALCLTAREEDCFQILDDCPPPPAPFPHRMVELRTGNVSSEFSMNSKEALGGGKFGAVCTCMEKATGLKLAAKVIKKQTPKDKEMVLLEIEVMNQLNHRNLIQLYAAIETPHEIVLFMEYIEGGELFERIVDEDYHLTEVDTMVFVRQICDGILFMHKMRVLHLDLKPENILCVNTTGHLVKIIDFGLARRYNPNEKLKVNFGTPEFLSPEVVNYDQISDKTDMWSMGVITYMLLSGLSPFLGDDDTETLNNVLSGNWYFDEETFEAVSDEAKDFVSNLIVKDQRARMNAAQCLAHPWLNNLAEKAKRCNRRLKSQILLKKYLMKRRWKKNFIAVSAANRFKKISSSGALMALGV

[5] = biological target: Glutamate receptor ionotropic, kainate 1 (Rattus norvegicus) (UniProt P22756); experiment: KAINATE/R Eurofins-Panlabs selectivity data (BI); conditions: Compound concentration 10.0 uM
[6] = biological target: Platelet-derived growth factor receptor beta (Homo sapiens) (UniProt P09619); experiment: PDGFRB Invitrogen selectivity data (BI); conditions: Compound concentration 3.0 uM
Sequence of Platelet-derived growth factor receptor beta (Homo sapiens) (P09619 whole entry): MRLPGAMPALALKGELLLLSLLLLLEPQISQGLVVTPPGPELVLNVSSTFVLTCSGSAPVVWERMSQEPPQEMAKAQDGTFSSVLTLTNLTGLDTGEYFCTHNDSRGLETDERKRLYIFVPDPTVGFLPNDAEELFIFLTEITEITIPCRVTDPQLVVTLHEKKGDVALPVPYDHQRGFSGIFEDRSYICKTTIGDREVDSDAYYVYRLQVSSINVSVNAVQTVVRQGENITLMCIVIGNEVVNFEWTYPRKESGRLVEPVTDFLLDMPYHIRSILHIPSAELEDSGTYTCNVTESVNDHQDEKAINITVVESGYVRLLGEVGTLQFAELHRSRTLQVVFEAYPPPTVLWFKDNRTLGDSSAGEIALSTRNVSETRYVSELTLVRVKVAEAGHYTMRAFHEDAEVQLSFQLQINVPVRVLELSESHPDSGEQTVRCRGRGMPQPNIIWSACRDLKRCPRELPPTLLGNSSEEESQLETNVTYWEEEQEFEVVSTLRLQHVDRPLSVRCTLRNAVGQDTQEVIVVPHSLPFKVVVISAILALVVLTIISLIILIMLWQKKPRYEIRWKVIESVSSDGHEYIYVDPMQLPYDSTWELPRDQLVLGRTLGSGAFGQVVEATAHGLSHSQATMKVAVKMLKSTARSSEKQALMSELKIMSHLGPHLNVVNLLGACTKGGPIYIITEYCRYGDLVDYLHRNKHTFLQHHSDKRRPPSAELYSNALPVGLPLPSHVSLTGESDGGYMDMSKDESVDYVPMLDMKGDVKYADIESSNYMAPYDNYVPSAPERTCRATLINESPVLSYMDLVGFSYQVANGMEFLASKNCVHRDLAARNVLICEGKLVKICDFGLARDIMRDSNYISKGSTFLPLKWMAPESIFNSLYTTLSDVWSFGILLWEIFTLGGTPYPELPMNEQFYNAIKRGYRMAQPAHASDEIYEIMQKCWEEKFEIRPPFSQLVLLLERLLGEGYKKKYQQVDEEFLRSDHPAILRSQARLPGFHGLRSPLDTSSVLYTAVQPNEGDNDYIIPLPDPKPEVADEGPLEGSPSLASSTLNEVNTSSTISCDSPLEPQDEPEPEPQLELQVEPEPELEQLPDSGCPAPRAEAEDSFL

[7] = biological target: Glucocorticoid receptor (Homo sapiens) (UniProt P04150); experiment: GLUCOCORTICO Eurofins-Panlabs selectivity data (BI); conditions: Compound concentration 10.0 uM
[8] = biological target: Protein kinase C alpha type (Homo sapiens) (UniProt P17252); experiment: PRKCA Invitrogen selectivity data (BI); conditions: Compound concentration 3.0 uM
[9] = biological target: Mitogen-activated protein kinase 9 (Homo sapiens) (UniProt P45984); experiment: MAPK9 Invitrogen selectivity data (BI); conditions: Compound concentration 3.0 uM
Sequence of Mitogen-activated protein kinase 9 (Homo sapiens) (P45984 whole entry, looked up): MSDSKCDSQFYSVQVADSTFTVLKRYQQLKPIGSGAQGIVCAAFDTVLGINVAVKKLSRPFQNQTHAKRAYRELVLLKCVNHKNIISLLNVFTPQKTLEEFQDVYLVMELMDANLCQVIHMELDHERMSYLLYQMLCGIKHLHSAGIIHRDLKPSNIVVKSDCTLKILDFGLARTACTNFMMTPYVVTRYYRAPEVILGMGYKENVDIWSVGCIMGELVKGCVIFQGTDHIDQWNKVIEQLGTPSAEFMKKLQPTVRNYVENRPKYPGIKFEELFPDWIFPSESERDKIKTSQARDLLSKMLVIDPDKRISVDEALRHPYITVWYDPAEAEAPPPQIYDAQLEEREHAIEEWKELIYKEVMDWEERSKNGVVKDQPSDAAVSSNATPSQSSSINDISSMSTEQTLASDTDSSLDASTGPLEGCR

[10] = biological target: Calcium/calmodulin-dependent protein kinase type II subunit alpha (Homo sapiens) (UniProt Q9UQM7); experiment: CAMK2ALPHA(H) Cerep selectivity data (BI); conditions: Compound concentration 20.0 uM
[11] = biological target: D(2) dopamine receptor (Homo sapiens) (UniProt P14416); experiment: D2S/HU Eurofins-Panlabs selectivity data (BI); conditions: Compound concentration 10.0 uM
Sequence of D(2) dopamine receptor (Homo sapiens) (P14416 whole entry): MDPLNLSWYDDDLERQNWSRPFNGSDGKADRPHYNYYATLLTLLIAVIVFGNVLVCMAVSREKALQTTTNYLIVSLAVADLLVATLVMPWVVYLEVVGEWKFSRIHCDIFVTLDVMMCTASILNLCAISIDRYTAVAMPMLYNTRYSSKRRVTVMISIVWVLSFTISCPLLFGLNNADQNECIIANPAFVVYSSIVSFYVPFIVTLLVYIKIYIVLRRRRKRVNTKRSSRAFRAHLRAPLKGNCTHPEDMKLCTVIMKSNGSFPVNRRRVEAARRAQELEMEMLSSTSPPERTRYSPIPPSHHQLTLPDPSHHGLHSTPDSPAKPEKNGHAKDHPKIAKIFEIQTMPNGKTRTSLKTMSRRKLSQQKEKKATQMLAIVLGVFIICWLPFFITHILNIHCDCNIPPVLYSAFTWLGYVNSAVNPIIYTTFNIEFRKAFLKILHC

[12] = biological target: Alpha-2B adrenergic receptor (Homo sapiens) (UniProt P18089); experiment: ALPHA2BH_ANTAG Cerep selectivity data (BI); conditions: filed as antagonist, Compound concentration 20.0 uM
[13] = biological target: Mast/stem cell growth factor receptor Kit (Homo sapiens) (UniProt P10721); experiment: KIT Invitrogen selectivity data (BI); conditions: Compound concentration 3.0 uM
[14] = biological target: Estrogen receptor (Homo sapiens) (UniProt P03372); experiment: ERALPHA/H Eurofins-Panlabs selectivity data (BI); conditions: Compound concentration 10.0 uM
Sequence of Estrogen receptor (Homo sapiens) (P03372 whole entry): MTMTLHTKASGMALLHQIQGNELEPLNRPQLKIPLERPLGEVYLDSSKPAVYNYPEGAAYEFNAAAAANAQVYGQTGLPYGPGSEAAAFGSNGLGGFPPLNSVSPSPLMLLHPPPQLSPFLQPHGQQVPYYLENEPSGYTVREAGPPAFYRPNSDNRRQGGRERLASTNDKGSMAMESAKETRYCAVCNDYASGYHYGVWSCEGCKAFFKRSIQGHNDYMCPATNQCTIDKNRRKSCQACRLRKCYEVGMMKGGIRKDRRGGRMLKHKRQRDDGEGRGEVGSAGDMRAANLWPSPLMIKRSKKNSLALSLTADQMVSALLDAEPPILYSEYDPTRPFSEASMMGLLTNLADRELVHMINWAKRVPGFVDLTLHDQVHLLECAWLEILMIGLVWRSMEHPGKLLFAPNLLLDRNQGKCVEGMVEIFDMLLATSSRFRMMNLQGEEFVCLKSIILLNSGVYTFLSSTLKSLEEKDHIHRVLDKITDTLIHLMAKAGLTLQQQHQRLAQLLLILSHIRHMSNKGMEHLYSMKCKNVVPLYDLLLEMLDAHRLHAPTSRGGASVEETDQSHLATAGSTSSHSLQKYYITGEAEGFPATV

[15] = biological target: Histamine H3 receptor (Homo sapiens) (UniProt Q9Y5N1); experiment: H3/H Eurofins-Panlabs selectivity data (BI); conditions: Compound concentration 10.0 uM
[16] = biological target: Dual specificity tyrosine-phosphorylation-regulated kinase 1A (Homo sapiens) (UniProt Q13627); experiment: DYRK1A Invitrogen selectivity data (BI); conditions: Compound concentration 3.0 uM
[17] = biological target: T1, Serine/threonine-protein kinase Nek1 (Homo sapiens) (UniProt Q96PY6); experiment: NEK1 Invitrogen selectivity data (BI); conditions: Compound concentration 3.0 uM
T1 sequence (whole entry): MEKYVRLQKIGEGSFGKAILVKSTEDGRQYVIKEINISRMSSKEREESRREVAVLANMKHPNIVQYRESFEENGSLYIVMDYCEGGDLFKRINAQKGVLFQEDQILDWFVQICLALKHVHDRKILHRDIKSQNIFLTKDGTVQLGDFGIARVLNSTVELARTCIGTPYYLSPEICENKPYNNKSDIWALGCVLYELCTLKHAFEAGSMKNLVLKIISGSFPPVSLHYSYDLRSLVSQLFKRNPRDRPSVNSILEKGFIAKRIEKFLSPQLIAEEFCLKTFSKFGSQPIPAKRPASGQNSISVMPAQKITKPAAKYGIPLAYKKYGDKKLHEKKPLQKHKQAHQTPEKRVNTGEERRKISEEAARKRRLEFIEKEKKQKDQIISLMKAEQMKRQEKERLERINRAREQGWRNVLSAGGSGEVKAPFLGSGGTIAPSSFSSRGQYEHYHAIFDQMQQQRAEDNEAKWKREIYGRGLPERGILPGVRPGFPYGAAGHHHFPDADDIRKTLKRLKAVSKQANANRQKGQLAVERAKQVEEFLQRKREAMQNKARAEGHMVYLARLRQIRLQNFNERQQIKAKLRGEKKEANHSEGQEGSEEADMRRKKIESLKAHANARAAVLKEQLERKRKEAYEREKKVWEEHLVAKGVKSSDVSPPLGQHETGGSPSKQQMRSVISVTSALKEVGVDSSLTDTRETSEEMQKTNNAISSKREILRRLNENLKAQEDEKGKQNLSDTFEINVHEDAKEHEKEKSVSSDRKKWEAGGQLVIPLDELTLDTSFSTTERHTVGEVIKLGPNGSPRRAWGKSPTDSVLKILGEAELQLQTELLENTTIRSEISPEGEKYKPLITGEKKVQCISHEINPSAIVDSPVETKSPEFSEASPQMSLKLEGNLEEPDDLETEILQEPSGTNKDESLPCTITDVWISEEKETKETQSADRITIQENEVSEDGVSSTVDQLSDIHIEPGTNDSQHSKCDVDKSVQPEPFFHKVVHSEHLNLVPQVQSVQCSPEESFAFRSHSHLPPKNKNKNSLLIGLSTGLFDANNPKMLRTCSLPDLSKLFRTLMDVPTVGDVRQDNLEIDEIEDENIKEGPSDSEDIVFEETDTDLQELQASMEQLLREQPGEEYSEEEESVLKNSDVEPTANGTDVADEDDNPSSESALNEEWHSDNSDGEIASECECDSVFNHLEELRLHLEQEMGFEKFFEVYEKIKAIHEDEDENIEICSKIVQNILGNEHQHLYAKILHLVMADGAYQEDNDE

[18] = biological target: ATP-sensitive inward rectifier potassium channel 1 isoform X1 (Mesocricetus auratus) (UniProt A0A1U8CU73); experiment: K+/KATP/HA Eurofins-Panlabs selectivity data (BI); conditions: Compound concentration 10.0 uM
Sequence of ATP-sensitive inward rectifier potassium channel 1 isoform X1 (Mesocricetus auratus) (A0A1U8CU73 as listed by the source): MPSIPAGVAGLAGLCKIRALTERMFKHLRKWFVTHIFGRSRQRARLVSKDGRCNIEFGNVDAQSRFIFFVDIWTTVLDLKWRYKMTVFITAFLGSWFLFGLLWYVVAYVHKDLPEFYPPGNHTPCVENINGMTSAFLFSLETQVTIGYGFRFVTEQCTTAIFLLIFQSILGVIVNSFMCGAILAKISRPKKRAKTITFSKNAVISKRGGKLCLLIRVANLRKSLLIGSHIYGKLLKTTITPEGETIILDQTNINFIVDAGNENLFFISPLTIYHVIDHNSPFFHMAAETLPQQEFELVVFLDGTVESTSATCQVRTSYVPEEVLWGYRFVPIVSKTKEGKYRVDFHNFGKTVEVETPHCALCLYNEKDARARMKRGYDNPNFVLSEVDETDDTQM

[19] = biological target: Mitogen-activated protein kinase 14 (Homo sapiens) (UniProt Q16539); experiment: MAPK14 Invitrogen selectivity data (BI); conditions: Compound concentration 3.0 uM
Sequence of Mitogen-activated protein kinase 14 (Homo sapiens) (Q16539 whole entry): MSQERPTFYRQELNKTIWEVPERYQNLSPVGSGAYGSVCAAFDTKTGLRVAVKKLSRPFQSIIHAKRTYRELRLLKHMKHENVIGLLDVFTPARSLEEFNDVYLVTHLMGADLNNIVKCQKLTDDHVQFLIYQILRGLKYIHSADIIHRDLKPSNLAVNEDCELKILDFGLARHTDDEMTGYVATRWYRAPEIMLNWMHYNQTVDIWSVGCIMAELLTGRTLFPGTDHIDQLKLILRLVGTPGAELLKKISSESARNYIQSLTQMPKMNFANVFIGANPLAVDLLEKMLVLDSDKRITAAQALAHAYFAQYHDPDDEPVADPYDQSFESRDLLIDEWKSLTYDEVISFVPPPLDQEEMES

[20] = biological target: T2, Mitogen-activated protein kinase kinase kinase 2 (Homo sapiens) (UniProt Q9Y2U5); experiment: MAP3K2 Invitrogen selectivity data (BI); conditions: Compound concentration 3.0 uM
T2 sequence (whole entry): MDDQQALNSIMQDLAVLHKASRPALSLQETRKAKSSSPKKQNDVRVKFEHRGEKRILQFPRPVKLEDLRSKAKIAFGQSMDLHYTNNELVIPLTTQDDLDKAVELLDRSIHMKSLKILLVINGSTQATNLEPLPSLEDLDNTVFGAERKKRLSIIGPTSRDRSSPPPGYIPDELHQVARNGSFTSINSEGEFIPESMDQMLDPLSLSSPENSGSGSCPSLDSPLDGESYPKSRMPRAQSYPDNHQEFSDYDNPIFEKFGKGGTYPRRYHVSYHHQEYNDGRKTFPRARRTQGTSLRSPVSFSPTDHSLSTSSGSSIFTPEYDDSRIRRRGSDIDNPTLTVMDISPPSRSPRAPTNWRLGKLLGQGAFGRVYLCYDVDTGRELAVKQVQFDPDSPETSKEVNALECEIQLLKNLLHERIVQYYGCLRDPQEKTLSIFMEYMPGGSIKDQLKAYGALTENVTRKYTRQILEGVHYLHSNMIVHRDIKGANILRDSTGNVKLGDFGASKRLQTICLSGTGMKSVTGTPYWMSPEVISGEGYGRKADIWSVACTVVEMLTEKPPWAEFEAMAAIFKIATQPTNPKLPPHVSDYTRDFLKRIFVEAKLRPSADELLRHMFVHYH

Measured: residual activity

Sequence of Adenosine receptor A1 (Homo sapiens) (P30542 whole entry): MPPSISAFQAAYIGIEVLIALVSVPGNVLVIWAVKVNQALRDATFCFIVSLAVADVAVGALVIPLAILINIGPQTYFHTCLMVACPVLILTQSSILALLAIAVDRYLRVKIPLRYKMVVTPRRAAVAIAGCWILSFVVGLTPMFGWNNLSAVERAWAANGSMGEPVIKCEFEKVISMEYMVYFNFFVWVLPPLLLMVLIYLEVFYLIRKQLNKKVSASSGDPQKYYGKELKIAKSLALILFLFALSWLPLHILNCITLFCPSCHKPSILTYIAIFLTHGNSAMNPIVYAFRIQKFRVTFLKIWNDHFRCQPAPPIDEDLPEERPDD

CN(C)C(=O)Cn1cc(-c2nc([C@@](C)(c3ccc(-c4cnc(N)nc4)cc3)C3CC3)no2)cn1 [BI 665915]
inactive: [1] 91% | [2] 75% | [3] 114% | [4] 89.5% | [5] 90% | [6] 94.5% | [7] 111% | [8] 102% | [9] 101% | [10] 111% | [11] 94% | [12] 100% | [13] 85% | [14] 85% | [15] 123% | [16] 100% | [17] 104% | [18] 97% | [19] 107% | [20] 97%
